Data from publication PMC3981784 (PLoS ONE, 2014).

Tests used:
A/WSN/33 (H1N1) = assay: Hemagglutination inhibition assay with chicken red blood cells; conditions: Influenza A virus, Erythrocyte, in Gallus gallus, read-out: EC50, inhibition of virus-induced hemagglutination
[1] = system: recombinant HA of A/Puerto Rico/8/1934 (H1N1), A/California/04/2009 (H1N1), A/Netherlands/219/03 (H7N7), and A/Anhui/1/2005 (H5N1); assay type: biochemical, influenza A virus; conditions: HA incubated on ice 30 min with compound; four HA subtypes
[2] = system: hemagglutinin of A/Puerto Rico/8/1934 (H1N1), A/California/04/2009 (H1N1), A/Netherlands/219/03 (H7N7), and A/Anhui/1/2005 (H5N1); assay type: binding, influenza A virus; conditions: four HA subtypes
[3] = system: purified influenza virus A/WSN/33; assay: Atomic force microscopy (AFM) of virus particles; conditions: 50 μM; for aggregation of viral particles (AFM images): 1 hour on ice; for heights of virions (AFM): versus DMSO-treated virions
influenza virus A/WSN/33 = assay: Immunofluorescence microscopy of intra-nuclear nucleoprotein accumulation (virus entry) in MDCK cells; assay type: cell-based
influenza virus = system: influenza virus; set-up: method as in PMID 21479599, PMID 19575286; conditions: ref [29], [30]; read-out: active concentration EC50 (anti-influenza virus activity); cited from earlier work
[4] = biological target: hemagglutinin derived from influenza A/California/04/2009(H1N1) (Influenza A virus, UniProt C3W5S1); assay: Competition binding assay with sialic acid (native PAGE band gray scale); assay type: biochemical; conditions: for HA aggregation (decrease of relative density of HA monomer) / HA aggregation (decrease of relative density of HA monomer), percent: 6 μM PGG; for hemagglutinin aggregation (native PAGE lane): 600 μM SA alone (Lane 2), 6 μM PGG alone (Lane 3)
hemagglutinin derived from influenza A/California/04/2009(H1N1), sequence (C3W5S1 entry or part of it, added parts left off): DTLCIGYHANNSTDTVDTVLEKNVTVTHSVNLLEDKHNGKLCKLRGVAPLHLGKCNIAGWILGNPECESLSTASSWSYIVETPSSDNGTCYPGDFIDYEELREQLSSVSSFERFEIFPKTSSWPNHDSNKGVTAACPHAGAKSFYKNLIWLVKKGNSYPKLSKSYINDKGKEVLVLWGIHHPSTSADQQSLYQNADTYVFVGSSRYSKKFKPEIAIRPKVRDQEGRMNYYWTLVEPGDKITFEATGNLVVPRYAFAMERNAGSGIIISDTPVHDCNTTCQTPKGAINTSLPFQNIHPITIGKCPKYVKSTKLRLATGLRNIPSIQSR

[5] = system: purified influenza virus A/WSN/33; conditions: PGG 25 μM; TritonX-100 0.5% (v/v)
MDCK cells = system: MDCK cells; set-up: method as in PMID 21479599, PMID 19575286; conditions: ref [29], [30], read-out: cytotoxicity EC50; cited from earlier work

Compound `O=c1oc2c(O)c(O)cc3c(=O)oc4c(O)c(O)cc1c4c23` [EA, Ellagic acid] has an EC50 (A/WSN/33 (H1N1)) of 446 nM.
`O=C(O[C@@H]1Cc2c(O)cc(O)cc2O[C@@H]1c1cc(O)c(O)c(O)c1)c1cc(O)c(O)c(O)c1` [EGCG, (−)-epigallocatechin-3-gallate] gave an EC50 (A/WSN/33 (H1N1)) of 430 ± 1 nM.
With `O=C(O)c1cc(O)c(O)c(O)c1` [GA, Gallic acid] the “HA aggregation on native PAGE (HA polymer formation)” value [1] was “not observed”, the “interactions with HAs (SPR)” value [2] was “No significant interactions” and the “aggregation of viral particles (AFM images)” value (from here on “aggregation of viral particles”) [3] was “dispersive”. The EC50 (A/WSN/33 (H1N1)) was > 50000 nM and the “intra-nuclear accumulation of virus nucleoprotein (NP), virus entry” value (“intra-nuclear accumulation” for short) (influenza virus A/WSN/33) was “viral NP was detected in the nucleus”.
In the case of `O=C(OC[C@H]1O[C@@H](OC(=O)c2cc(O)c(O)c(O)c2)[C@H](OC(=O)c2cc(O)c(O)c(O)c2)[C@@H](OC(=O)c2cc(O)c(O)c(O)c2)[C@@H]1OC(=O)c1cc(O)c(O)c(O)c1)c1cc(O)c(O)c(O)c1` [PGG, penta-galloyl-glucose], the EC50 (influenza virus) is given as 2510 ± 310 nM, the “aggregation of viral particles” value [3] is given as “significantly aggregated” and the “heights of virions (AFM)” value [3] is given as “significantly greater than that of DMSO-treated virions”. For the same compound, the “HA aggregation (decrease of relative density of HA monomer)” value ([4]; with the presence of 600 μM SA) was 0.22, the “HA aggregation (decrease of relative density of HA monomer), percent” value ([4]; with the presence of 600 μM SA) was 20.7% and the “HA aggregation (decrease of relative density of HA monomer)” value ([4]; without SA) was 0.33. For the same compound, the “HA aggregation (decrease of relative density of HA monomer), percent” value ([4]; without SA) was 33.2%, the “hemagglutinin aggregation (native PAGE lane)” value [4] was “increases hemagglutinin aggregation” and the EC50 (A/WSN/33 (H1N1)) was 5 ± 2 nM. For the same compound, the “membrane structures of the virus particles (TEM)” value [5] was “remain undisrupted”, the EC50 (MDCK cells) was 31500 ± 4600 nM and the “intra-nuclear accumulation” value (influenza virus A/WSN/33) was “significantly decreased in the number of nucleoprotein-positive nucleus”.
With `CC(=O)N[C@H]1[C@H]([C@H](O)[C@H](O)CO)OC(O)(C(=O)O)C[C@@H]1O` (stereo partly shown) [SA, Sialic acid, reference compound] the “hemagglutinin aggregation (native PAGE lane)” value [4] was “reduces hemagglutinin aggregation”.
For `O=C(OC[C@H]1O[C@@H](OC(=O)c2cc(O)c(O)c(O)c2)[C@H](OC(=O)c2cc(O)c(O)c(O)c2)[C@@H](OC(=O)c2cc(O)c(O)c(O)c2)[C@@H]1O)c1cc(O)c(O)c(O)c1` [TGG, 1,2,3,6-Tetra-O-galloyl-beta-D-glucose], the “aggregation of viral particles” value [3] was “significantly aggregated”, the “heights of virions (AFM)” value [3] was “significantly greater than that of DMSO-treated virions” and the EC50 (A/WSN/33 (H1N1)) was 1 ± 1 nM. The “intra-nuclear accumulation” value (influenza virus A/WSN/33) was “significantly decreased in the number of nucleoprotein-positive nucleus”.
For TritonX-100 [reference compound], the “membrane structures of the virus particles (TEM)” value [5] was “destroyed membrane structures”.
